The numbers were not newly measured in patent publication US20170007630A1, “COMPOSITION AND METHOD OF DELIVERY OF L-ARABINOSE AND SELECT COMPOUNDS” (priority 2011, published 2017), which cites them from elsewhere.

In data set [1] the target is T1, sucrase (Homo sapiens, UniProt P14410).
For data set [2] the following is noted: one study conducted in China.
For data set [3], the target named is T1, sucrase. Conditions: compared with sucrose.

T1 sequence (P14410 whole entry): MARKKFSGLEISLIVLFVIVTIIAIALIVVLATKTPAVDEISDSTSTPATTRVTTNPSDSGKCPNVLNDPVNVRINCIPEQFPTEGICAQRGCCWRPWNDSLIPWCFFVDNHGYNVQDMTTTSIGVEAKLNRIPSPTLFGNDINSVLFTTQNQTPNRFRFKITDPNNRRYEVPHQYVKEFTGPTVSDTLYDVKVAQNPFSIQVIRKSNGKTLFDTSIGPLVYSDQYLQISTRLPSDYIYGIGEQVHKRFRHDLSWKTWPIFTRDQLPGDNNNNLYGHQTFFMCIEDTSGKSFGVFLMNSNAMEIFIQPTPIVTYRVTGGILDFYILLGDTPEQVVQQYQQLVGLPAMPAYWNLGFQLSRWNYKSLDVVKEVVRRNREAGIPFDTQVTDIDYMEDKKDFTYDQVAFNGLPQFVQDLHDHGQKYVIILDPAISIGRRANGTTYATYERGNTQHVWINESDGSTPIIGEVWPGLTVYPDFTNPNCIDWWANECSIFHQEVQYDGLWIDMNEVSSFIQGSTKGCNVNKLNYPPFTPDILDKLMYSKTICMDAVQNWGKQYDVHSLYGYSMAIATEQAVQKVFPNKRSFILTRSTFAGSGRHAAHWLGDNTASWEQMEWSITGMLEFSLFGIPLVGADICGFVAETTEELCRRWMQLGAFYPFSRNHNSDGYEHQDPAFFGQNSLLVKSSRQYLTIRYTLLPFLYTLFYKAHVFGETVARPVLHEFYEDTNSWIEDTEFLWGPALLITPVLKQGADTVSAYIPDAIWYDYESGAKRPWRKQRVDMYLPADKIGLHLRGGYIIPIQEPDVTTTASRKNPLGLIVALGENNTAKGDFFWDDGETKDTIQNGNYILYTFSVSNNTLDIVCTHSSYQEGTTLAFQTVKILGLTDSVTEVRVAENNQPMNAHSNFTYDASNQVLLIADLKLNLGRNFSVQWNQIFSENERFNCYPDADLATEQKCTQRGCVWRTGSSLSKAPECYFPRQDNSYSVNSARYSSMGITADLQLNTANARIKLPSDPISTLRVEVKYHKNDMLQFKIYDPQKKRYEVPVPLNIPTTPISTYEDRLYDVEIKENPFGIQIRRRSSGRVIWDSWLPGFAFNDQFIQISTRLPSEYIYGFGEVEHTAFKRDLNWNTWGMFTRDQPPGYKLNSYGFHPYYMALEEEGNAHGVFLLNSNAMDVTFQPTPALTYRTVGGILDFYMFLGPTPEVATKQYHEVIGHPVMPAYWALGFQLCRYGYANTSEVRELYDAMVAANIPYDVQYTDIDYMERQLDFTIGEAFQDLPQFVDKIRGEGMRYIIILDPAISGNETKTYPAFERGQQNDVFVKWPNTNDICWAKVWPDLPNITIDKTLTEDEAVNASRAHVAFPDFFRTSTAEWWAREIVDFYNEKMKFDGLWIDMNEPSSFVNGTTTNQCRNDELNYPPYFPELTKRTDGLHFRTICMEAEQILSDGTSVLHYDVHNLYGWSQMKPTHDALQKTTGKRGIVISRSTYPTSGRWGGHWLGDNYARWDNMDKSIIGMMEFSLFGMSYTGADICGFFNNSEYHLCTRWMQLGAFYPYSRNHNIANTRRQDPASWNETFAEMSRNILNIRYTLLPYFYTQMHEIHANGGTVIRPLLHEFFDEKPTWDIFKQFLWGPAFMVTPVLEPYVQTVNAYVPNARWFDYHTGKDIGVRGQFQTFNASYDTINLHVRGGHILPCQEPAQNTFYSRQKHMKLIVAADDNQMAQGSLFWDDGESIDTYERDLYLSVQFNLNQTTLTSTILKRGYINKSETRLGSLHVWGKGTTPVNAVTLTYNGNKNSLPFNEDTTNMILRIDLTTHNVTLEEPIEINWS

With `O=C[C@H](O)[C@@H](O)[C@@H](O)CO` [L-arabinose], the “parts of sucrose inhibited from breakdown per one part of L-arabinose” value on sucrase [1] is “up to 20 parts”. The “participants that experienced discomforts such as loose bowel or diarrhea” value in data set [2] is recorded as “about 40%”. The “affinity to sucrase relative to sucrose” value on sucrase [3] was “approximately 5 times”.
